According to US5597899A, “Tumor necrosis factor muteins” (Hoffmann-La Roche Inc., priority 1993, dated 1997):

Assays:
human TNFR-p55 = assay: Solid phase radioligand competition binding assay, E. coli lysates, TNFR-p55; settings: for Dilution of E. coli Lysate for 50% Inhibition of 125I-TNFα Binding (ID50) TNFR-p55: 10-fold serial dilutions 10^-2 to 10^-7, < = inhibition but below 50% at 1:100, << = no measurable inhibition at 1:100; for ID50 TNFR-p55 / ID50 TNFR-p75: ratio = 1 no receptor selectivity, > 1 TNFR-p55 selectivity, < 1 TNFR-p75 selectivity
Protocol: (§1) After 20 min incubation at room temperature 50 μl of 1M MgCl2, 20 μl of 5 mg/ml DNaseI, 50 μl of 5M NaCl and 50 μl of 10% NP-40 were added and the mixture was further incubated at room temperature for 15 min. 0.5 ml of the lysate clarified by centrifugation at 13'000 rpm for 5 min was subjected to ammonium sulfate precipitation (25%-70% cut). The 70% ammonium sulfat pellet was dissolved in 0.2 ml PBS and analyzed by sodium dodecyl sulfate polyacrylamide gel electrophoresis (SDS-PAGE) to confirm presence and approximate amount of the recombinant proteins.
TNFα was labelled by the Iodogen method (Pierce Chemical Company) to a specific activity of about 10-30 μCi/μg. The volume was 100 μl/well and each lysate dilution was assayed in duplicate or triplicate. After three hours at room temperature the wells were thoroughly washed with PBS and counted in a γ-counter. The results are given in Table 2 for lysates comprising the muteins indicated therein.

human TNFR-p75 = assay: Solid phase radioligand competition binding assay, E. coli lysates, TNFR-p75; settings: 10-fold serial dilutions 10^-2 to 10^-7, < = inhibition but below 50% at 1:100, << = no measurable inhibition at 1:100
Protocol: as §1, with “10 ml suspensions of E. coli cells transformed and induced as described in Examples I and II were centrifuged at 4'000 rpm for 10 min and resuspended in 0.9 ml of lysis buffer (10 mM Tris-HCl pH 8.0, 5 mM EDTA, 2 mM PMSF, 10 mM benzamidine, 200 units/ml aprotinine and 0.1 mg/ml lysozyme). After” for “After”
96 well microtiter plates were coated with recombinant human […] TNFR-p75-hγ3 and TNFR-p55-hγ3 fusion proteins (extracellular portion of the receptor fused to the Fc part of human IgG3) at a concentration of 0.3 μg/ml and 0.1 μg/ml, respectively, in phosphate buffered saline (PBS, 100 μl/well, overnight at 4° C.) [Loetscher, H. et al. J. Biol. Chem. 266, 18324-18329 (1991); Lesslauer, W. et al. Eur. J. Immunol. 21, 2883-2886 (1991)]. After blocking with blocking buffer (50 mM Tris pH 7.4, 140 mM NaCl, 5 mM EDTA, 0.02% NAN3, 1% defatted milk powder) the microtiter plate was washed with PBS and incubated in blocking buffer containing 0.1% defatted milk powder with 10 ng/ml human wild-type ^125 I-TNFα and various dilutions of E. coli lysates ranging from 10^-2 to 10^-7 (10-fold serial dilutions). TNFα was labelled by the Iodogen method (Pierce Chemical Company) to a specific activity of about 10-30 μCi/μg. The volume was 100 μl/well and each lysate dilution was assayed in duplicate or triplicate. After three hours at room temperature the wells were thoroughly washed with PBS and counted in a γ-counter. The results are given in Table 2 for lysates comprising the muteins indicated therein.

| Substance | Dilution of E. coli Lysate for 50% Inhibition of 125I-TNFα Binding (ID50) TNFR-p55 (human TNFR-p55) | ID50 TNFR-p55 / ID50 TNFR-p75 (human TNFR-p55) | Dilution of E. coli Lysate for 50% Inhibition of 125I-TNFα Binding (ID50) TNFR-p75 (human TNFR-p75) |
| --- | --- | --- | --- |
| L29S-S86T: human TNFα mutein L29S-S86T | 200 fold | > 2 | < 100 fold |
| S86T: human TNFα mutein S86T | 10,000 fold | > 100 | < 100 fold |
| N34G: human TNFα mutein N34G | 330 fold | > 3.3 | < 100 fold |
| A145G: human TNFα mutein A145G | 2,500 fold | 0.4 | 6,670 fold |
| R31E-S86T: human TNFα mutein R31E-S86T | 2,000 fold | > 20 | < 100 fold |
| F144L: human TNFα mutein F144L | 5,000 fold | 1 | 5,000 fold |
| A145K: human TNFα mutein A145K | < 100 fold | < 0.05 | 1,820 fold |
| I97Y: human TNFα mutein I97Y | 2,500 fold | 7.6 | 330 fold |
| N19D: human TNFα mutein N19D | 5,000 fold | 1 | 5,000 fold |
| N92R: human TNFα mutein N92R | 5,000 fold | 4 | 1,250 fold |
| A145T: human TNFα mutein A145T | 5,000 fold | 0.7 | 6,670 fold |
| Y87T: human TNFα mutein Y87T | < 100 fold | 1 | < 100 fold |
| N34Q: human TNFα mutein N34Q | < 100 fold | > 1 | < 100 fold |
| Y87K: human TNFα mutein Y87K | < 100 fold | 1 | < 100 fold |
| Y87T-E104G: human TNFα mutein Y87T-E104G | < 100 fold | 1 | < 100 fold |
| N34V: human TNFα mutein N34V | < 100 fold | > 1 | < 100 fold |
| H73T: human TNFα mutein H73T | 2,000 fold | 1 | 2,000 fold |
| Q67Y: human TNFα mutein Q67Y | 20,000 fold | 0.6 | 33,330 fold |

| Substance | Dilution of E. coli Lysate for 50% Inhibition of 125I-TNFα Binding (ID50) TNFR-p55 (human TNFR-p55) | ID50 TNFR-p55 / ID50 TNFR-p75 (human TNFR-p55) | Dilution of E. coli Lysate for 50% Inhibition of 125I-TNFα Binding (ID50) TNFR-p75 (human TNFR-p75) |
| --- | --- | --- | --- |
| L29S-R32W: human TNFα mutein L29S-R32W | 5,000 fold | > 50 | < 100 fold |
| N34I: human TNFα mutein N34I | 200 fold | > 2 | < 100 fold |
| N34F: human TNFα mutein N34F | 100 fold | > 1 | < 100 fold |
| D143V-A145S: human TNFα mutein D143V-A145S | < 100 fold | < 0.5 | 200 fold |
| R31K: human TNFα mutein R31K | 3,330 fold | 1 | 3,330 fold |
| A145H: human TNFα mutein A145H | 330 fold | 0.2 | 1,670 fold |
| S99Y: human TNFα mutein S99Y | < 100 fold | 1 | < 100 fold |
| N34Y: human TNFα mutein N34Y, listed twice (codons TAT and TAC) | < 100 fold | > 1 | < 100 fold |
| D143E: human TNFα mutein D143E | < 100 fold | < 0.3 | 330 fold |
| Y115W: human TNFα mutein Y115W | 2,220 fold | 1 | 2,220 fold |
| N34C: human TNFα mutein N34C | 250 fold | > 2.5 | < 100 fold |
| F144D: human TNFα mutein F144D | 5,000 fold | 15.2 | 330 fold |
| S99A: human TNFα mutein S99A | 6,670 fold | 1 | 6,670 fold |
| N34P: human TNFα mutein N34P | < 100 fold | > 1 | < 100 fold |
| Q67T: human TNFα mutein Q67T | 25,000 fold | 0.75 | 33,330 fold |
| F144G: human TNFα mutein F144G | 2,500 fold | 1.2 | 2,000 fold |
| N30T: human TNFα mutein N30T | 2,860 fold | 1.1 | 2,500 fold |
| R31N-R32T: human TNFα mutein R31N-R32T | 3,260 fold | > 32.6 | < 100 fold |
